Where “and” joins values, the source holds several entries; their conditions need not be identical. Equal values may be shown once.
Assays:
[1] = tested on: U251 3D-bioprinted structures; assay: Viability assay in 3D-bioprinted U251 cell model (PrestoBlue); type: cell-based; conditions: Homo sapiens, U-251, 72 h, bioprinted U251 3D model
Description: A solution of 2% alginate and 8% gelatin (bio-ink) made up the hydrogel utilized for bioprinting. After 15 min of UV light exposure, the powders were dissolved in sterile DPBS in a magnetic stirrer set at 50 °C with laminar flow. After being made, bioink was put in sterile syringes and kept at 4 °C until it was needed. Bioink had been equilibrated at 37 °C prior to the bioprinting process. After that, 2.7 mL of bioink was added to 20 × 10^6 cells that had been resuspended in 300 µL of growth media. Lastly, a disposable cartridge containing a cell/hydrogel suspension was equilibrated in a temperature-controlled printhead for 30 min at 29 °C. The BIO-X bioprinter (Cellink, Gothenburg, Sweden) was used to print in a 12-well plate at a speed of 5 mm/s and a dispensing pressure of 50 kPa, while the temperature was adjusted to 18 °C. Before adding culture media, three-dimensional constructs were crosslinked using CaCl2 for ten minutes and BaCl2 for three minutes. After 8 days, 3D structures, after evaluating cell viability, were treated for 72 h with SI306 and SI306-PD2 at selected concentrations and in different conditions: in complete DMEM high-glucose growth medium and DMEM-high glucose growth medium without FBS (w/o). Fiji ImageJ software (version 2.16.0/1.54p, https://imagej.net/software/fiji/downloads, accessed on 20 May 2025) was used to perform measurements of 3D models’ diameters on images acquired using phase contrast microscopy. A hemocytometer was used to set a scale for normalized measures and to convert real optic distance in pixels. At least five different optical fields were acquired, and the diameter was calculated for at least 100 different cell aggregates in each experimental point.
For the treatment of 2D cultures, U87 and U251 cell lines were initially seeded at a density of 2.5 × 10^4 cells/mL in a 24 multiwell with a complete DMEM high-glucose growth medium. […] Cell viability in 2D and 3D models was assessed using the cell-permeable resazurin-based solution PrestoBlue (Thermo Fisher, Waltham, MA, USA). After incubating the cells in a 1:10 ratio with the colorimetric reagent for two hours in the dark, the spectrophotometer readings at 570 and 600 nm were utilized as a relative indicator for cell viability.
Data were imported into Excel or GraphPad Prism software (version 6.01) and elaborated as the mean ± standard deviation (SD) of at least three independent experiments. […] The p value of the log-dose vs. response was calculated with a two-tailed Mann–Whitney test for unpaired data. The statistical significance between two series of measures, including stability and PAMPA (both GI and BBB) experiments, was calculated with the parametric Student t test, considering a significant p value lower than 0.05.

[2] = tested on: U87 glioblastoma cell line; assay: 2D cell viability assay (PrestoBlue), U87; type: cell-based; conditions: Homo sapiens, 72 h, U87 2D culture
Description: (§1) The human glioblastoma cell line U87 MG (U87) was originally isolated from a patient with a malignant glioma (ECACC). The human glioblastoma cell line U251 MG (U251) was derived from a patient with a malignant glioblastoma (ECACC). DMEM high-glucose growth medium (Euroclone, Milan, Italy), supplemented with 10% FBS (Euroclone), 200 mM L-glutamine (Euroclone), 100 IU/mL penicillin, and 100 µg/mL streptomycin (Euroclone) comprised the culture medium used for cell propagation at a controlled temperature and atmosphere, at 37 °C, […], and 5% CO2. Cell lines underwent regular testing for mycoplasma using the PCR method and identity verification was performed using DNA profiling.
(§2) For the treatment of 2D cultures, U87 and U251 cell lines were initially seeded at a density of 2.5 × 10^4 cells/mL in a 24 multiwell with a complete DMEM high-glucose growth medium. The viability test was started 24 h after cell plating and performed for 72 h. According to the experimental plan, the tests were performed in the presence of a complete DMEM high-glucose growth medium or, to avoid the serum-dependent degradation of prodrug, in an FBS-free DMEM high-glucose growth medium that was supplemented with 200 mM L-glutamine, 100 IU/mL penicillin, and 100 µg/mL streptomycin. Cell viability in 2D and 3D models was assessed using the cell-permeable resazurin-based solution PrestoBlue (Thermo Fisher, Waltham, MA, USA). After incubating the cells in a 1:10 ratio with the colorimetric reagent for two hours in the dark, the spectrophotometer readings at 570 and 600 nm were utilized as a relative indicator for cell viability.
(§3) Data were imported into Excel or GraphPad Prism software (version 6.01) and elaborated as the mean ± standard deviation (SD) of at least three independent experiments. The calculation of IC50 values with 95% confidence intervals was performed in GraphPad Prism software using a parameter nonlinear fit of the log-dose vs. response elaboration of data. The p value of the log-dose vs. response was calculated with a two-tailed Mann–Whitney test for unpaired data. The statistical significance between two series of measures, including stability and PAMPA (both GI and BBB) experiments, was calculated with the parametric Student t test, considering a significant p value lower than 0.05.

[3] = PAMPA assay, gastrointestinal (GI) membrane; type: in vitro ADME; conditions: four hours; for Papp at 4 h: pH 7.4, room temperature, read-out: Apparent permeability Papp; for Membrane retention MR: room temperature
Description: (§4) After being first dissolved in DMSO, the compounds were diluted 1:1 v/v using phosphate buffer (PBS 10 mM, pH 7.4). […] The gastrointestinal (GI) and blood–brain barrier (BBB) phospholipidic bilayers were mimicked by covering each well of the filter plate with either a 10%w/v CHCl3/dodecane brain polar lipid solution or a 1%w/v L-α-phosphatidylcholine solution (PC) in dodecane. After placing a DMSO/PBS 1:1v/v combination solution in the acceptor plate, the sandwich was gently shaken and incubated at room temperature for four hours. Samples were collected from the upper and bottom plates at the end time point, and the LC-UV/MS method was used for analysis. As previously reported, the apparent permeability (Papp cm/s × 10^−6) was quantified.

[4] = Stability/release in human plasma; conditions: for Stability (% unmodified compound): 37 °C; for half-life: human, pH 7.4
in vitro = conditions: PAMPA, pH 7.4
Description: as §4

[5] = tested on: U251 glioblastoma cell line; assay: 2D cell viability assay (PrestoBlue), U251; type: cell-based; conditions: Homo sapiens, U-251, 72 h, U251 2D culture
Description: as §1, §2, §3

Compound	IC50 ([1]; 10% FBS-DMEM)	IC50 ([1]; FBS-free DMEM (w/o))	IC50 ([2]; 10% FBS-DMEM)	IC50 ([2]; FBS-free DMEM (w/o))	Papp at 4 h [3]	Membrane retention MR [3]	Stability (% unmodified compound) ([4]; time 0 h)	Stability (% unmodified compound) ([4]; time 0.083 h)	Stability (% unmodified compound) ([4]; time 0.25 h)	Stability (% unmodified compound) ([4]; time 0.5 h)	Stability (% unmodified compound) ([4]; time 1 h)	Stability (% unmodified compound) ([4]; time 2 h)	Stability (% unmodified compound) ([4]; time 4 h)	Stability (% unmodified compound) ([4]; time 6 h)	Stability (% unmodified compound) ([4]; time 24 h)	half-life [4]	Papp at 4 h (in vitro)	IC50 ([5]; 10% FBS-DMEM)	IC50 ([5]; FBS-free DMEM (w/o))
ClC(Cn1ncc2c(Nc3cccc(Br)c3)nc(SCCN3CCOCC3)nc21)c1ccccc1 (stereo not drawn) [SI306, N-(3-bromophenyl)-1-(2-chloro-2-phenylethyl)-6-((2-morpholinoethyl)thio)-1H-pyrazolo[3,4-d]pyrimidin-4-amine]	14400 nM	11600 nM	3070 nM	270 nM	5.93 ± 0.38 ×10⁻⁶ cm/s	60.09 ± 3.38%	100.50 ± 2.32%	96.64 ± 2.74%	97.99 ± 2.48%	98.95 ± 1.18%	99.48 ± 1.70%	99.92 ± 0.61%	95.72 ± 0.76%	95.54 ± 1.74%	93.12% and 93.12 ± 1.70 %	> 100 h	8.44 ± 1.03 ×10⁻⁶ cm/s	2620 nM	230 nM
O=C(OCCOCCO)N(c1cccc(Br)c1)c1nc(SCCN2CCOCC2)nc2c1cnn2CC(Cl)c1ccccc1 (stereo not drawn) [SI306-PD2, 2-(2-Hydroxyethoxy)ethyl (3-Bromophenyl)(1-(2-chloro-2-phenylethyl)-6-((2-morpholinoethyl)thio)-1H-pyrazolo[3,4-d]pyrimidin-4-yl)carbamate]	10000 nM	5110 nM	1620 nM	290 nM	18.4 ± 2.32 ×10⁻⁶ cm/s	5.26 ± 2.70%	101.03 ± 1.58%	90.12 ± 2.45%	89.41 ± 2.37%	89.57 ± 1.82%	–	88.55 ± 1.18%	71.86 ± 1.03%	70.80 ± 3.25%	–	10.9 h	19.5 ± 0.46 ×10⁻⁶ cm/s	1290 nM	90 nM

Reference: article PMC12195707, “Evaluation of Antitumoral Activity in a 3D Cell Model of a Src Inhibitor Prodrug for Glioblastoma Treatment” (Pharmaceutics, 2025)
